Data set [1] is described as follows: Inhibition of recombinant human farnesyltransferase using dansyl-GCVLS as substrate in presence of farnesyl pyrophosphate after 15 mins by fluorescence assay.
Data set [2] is described as follows: Inhibition of Trypanosoma brucei recombinant farnesyltransferase using dansyl peptide containing GCAIM as substrate in presence of farnesyl pyrophosphate after 15 mins by fluorescence assay.
Data set [3] deals with Plasmodium falciparum. Briefly: Antiplasmodial activity against chloroquine-resistant erythrocyte stage of Plasmodium falciparum FcM29-Cameroon infected in human RBC assessed as reduction in [3H]hypoxanthine incorporation preincubated for 48 hrs followed by [3H]hypoxanthine addition measured after 24 hrs by liquid scintillation counting method. The class given is functional.

For data set [4], the system named is Staphylococcus aureus. Kind of data set: Antibacterial activity against Staphylococcus aureus ATCC 25923 after 24 hrs by broth microdilution method. The class given is functional. Particulars: ATCC 25923, 24 h.
The test system of data set [5] is Staphylococcus intermedius. Kind of data set: Antibacterial activity against Staphylococcus intermedius isolate 1051997 after 24 hrs by broth microdilution method. The class given is functional. Particulars: isolate 1051997, 24 h. For orientation: Broth dilution looks for growth in wells or tubes with falling amounts of substance.
Data set [6] concerns Pseudomonas aeruginosa. Kind of data set: Antibacterial activity against Pseudomonas aeruginosa ATCC 27853 after 24 hrs by broth microdilution method. The class given is functional.
Data set [7] concerns Escherichia coli. Briefly: Antibacterial activity against Escherichia coli ATCC 25922 after 24 hrs by broth microdilution method. The class given is functional.
For data set [8], the system named is Plasmodium falciparum. Briefly: Antiplasmodial activity against chloroquine-sensitive IEF stage of Plasmodium falciparum NF54 infected in human RBC assessed as reduction in [3H]hypoxanthine incorporation preincubated for 48 hrs followed by [3H]hypoxanthine addition measured after 24 hrs by liquid scintillation counting method. The class given is functional.
The test system of data set [9] is L6. Briefly: Cytotoxicity against rat L6 cells after 72 hrs by Alamar blue assay. The class given is cell-based. Particulars: L6, 72 h. (In general: Resazurin is reduced to fluorescent resorufin, in cell work by metabolically active cells.)
A short description of data set [10]: Selectivity index, ratio of IC50 for rat L6 cells to IC50 for chloroquine-sensitive IEF stage of Plasmodium falciparum NF54 infected in human RBC. The class given is toxicity. Particulars: read-out: Ratio IC50.

pIC50: −log10 of the molar value. ≈ marks a conversion by molar mass, not a printed value. Calls of active or inactive are those of the source. The calls are words filed in the database; no cut-off is given here.

A word on the pIC50: it is the negative decadic logarithm of the IC50, by convention in mol/L. As a reminder, the MIC is the lowest concentration found to suppress growth. Regarding `CC(C)=CCC/C(C)=C/Cc1cc(O)cc2c1OC(/C=C(\C)CCC=C(C)C)C1=C2C(=O)C2=C(NCCS2(=O)=O)C1=O` (stereo not drawn), the pIC50 is 6.85 in data set [1], 6.66 in data set [2] and 5.34 in data set [3]. Further, the MIC in [4] and in data set [5] was above 200 µM each time. Besides, the result in data set [6] and in data set [7] was inactive.
`CC(C)=CCC/C(C)=C/CC/C(C)=C/C1Oc2c(cc(O)c3c2-c2cc(O)ccc2OC3/C=C(\C)CC/C=C(\C)CCC=C(C)C)C2=C1C(=O)C=CC2=O` (stereo not drawn): the pIC50 in data set [1] is 6.00; in [2] it was 5.80; in data set [8], 4.47; in data set [9] (read-out: IC50), 4.27. Besides, the MIC in data set [4] and in data set [5] was above 200 µM in each case. Moreover, the result in [6] and in [7] was inactive.
In the case of `CC(C)=CCc1cc(O)cc2c1OC(C=C(C)C)C1=C2C(=O)C2=C(NCCS2(=O)=O)C1=O` (stereo not drawn), the negative-log IC50 (pIC50) is 4.83 in [1], 4.71 in data set [2], 5.70 in data set [8] and 5.38 in [9] (read-out: IC50). For the same molecule, the MIC in data set [4] and in [5] was above 200 µM throughout. In addition, the result in data set [6] and in data set [7] was inactive.
On to `COC1=CC(=O)C2=C(C1=O)c1cc(O)ccc1OC2/C=C(\C)CC/C=C(\C)CCC=C(C)C` (stereo not drawn), for which the pIC50 was below 4.65 in data set [1], below 4.65 in data set [2], 4.69 in [8] and 4.46 in [9] (read-out: IC50). Further, the results for the MIC in data set [4] and in data set [5] were 25 µM (≈ 11.2 µg/mL) and 50 µM (≈ 22.4 µg/mL), respectively. The result in data set [6] and in data set [7] was inactive.
`COc1cc([C@@H]2c3cc4c(cc3[C@H](O)[C@H]3COC(=O)[C@H]23)OCO4)cc(OC)c1OC` [PODOFILOX] gave a pIC50 in [9] of 7.92.
For the molecule `O=C(N[C@H](CO)[C@H](O)c1ccc([N+](=O)[O-])cc1)C(Cl)Cl` [CHLORAMPHENICOL], the figures for the MIC in data set [4] and in [5] were 1.5 to 3 µM (≈ 0.485 to 0.969 µg/mL) and 3 to 6 µM (≈ 0.969 to 1.94 µg/mL), respectively.
As for `CC(C)=CCC/C(C)=C/Cc1cc(O)cc2c1OC(/C=C(\C)CCC=C(C)C)C1=C2C(=O)C2=C(C1=O)S(=O)(=O)CCN2` (stereo not drawn), the pIC50 is 6.11 in data set [1], 6.13 in data set [2] and below 4.77 in data set [3]. In addition, the MIC in [4] and in [5] was above 200 µM throughout. In addition, the outcome in [6] and in data set [7] was inactive.
On to `CC(C)=CCC/C(C)=C/Cc1cc2c(cc1O)C1=C(C(=O)C3=C(C1=O)S(=O)(=O)CCN3)C(/C=C(\C)CCC=C(C)C)O2` (stereo not drawn), for which the pIC50 in data set [1] was 7.27; in data set [2], 7.01; in data set [3] it was 5.36. Further, the MIC in data set [4] and in data set [5] was above 200 µM each time. Further, the result in data set [6] and in data set [7] was inactive.
Take `CC(C)=CCC/C(C)=C/CC/C(C)=C/Cc1cc(O)cc2c1OC(/C=C(\C)CC/C=C(\C)CCC=C(C)C)C1=C2C(=O)C2=C(C1=O)S(=O)(=O)CCN2` (stereo not drawn): the pIC50 in data set [1] was 6.77; in data set [2], 6.46; in data set [8] it was 5.40; in data set [9] (read-out: IC50), 4.51. For the same molecule, the MIC in data set [4] and in data set [5] was above 200 µM throughout. Also, the outcome in [6] and in data set [7] was inactive.
Regarding `CSCC[C@H](NC(=O)c1ccc(NC[C@@H](N)CS)cc1-c1ccccc1)C(=O)O`, the pIC50 in [2] is 8.00.
On to `CC(C)=CCC/C(C)=C/Cc1cc2c(cc1O)C1=C(C(=O)C3=C(NCCS3(=O)=O)C1=O)C(/C=C(\C)CCC=C(C)C)O2` (stereo not drawn), for which the values for the pIC50 in data set [1], in data set [2] and in [3] were 5.91, 5.52 and below 4.77, respectively. Moreover, the MIC in data set [4] and in data set [5] was above 200 µM throughout. Besides, the result in [6] and in data set [7] was inactive.
On to `CC(C)=CCc1cc(O)cc2c1OC(C=C(C)C)C1=C2C(=O)C2=C(C1=O)S(=O)(=O)CCN2` (stereo not drawn), for which the pIC50 is 4.76 in data set [1], below 4.66 in data set [2], 5.10 in data set [8] and 4.89 in [9] (read-out: IC50). For the same molecule, the MIC in data set [4] and in data set [5] was above 200 µM throughout. The result in data set [6] and in data set [7] was inactive.
Regarding `CN[C@@H]1[C@H](O[C@H]2[C@H](O[C@H]3[C@H](O)[C@@H](O)[C@H](N=C(N)N)[C@@H](O)[C@@H]3N=C(N)N)O[C@@H](C)[C@]2(O)C=O)O[C@@H](CO)[C@H](O)[C@H]1O` [STREPTOMYCIN], the MIC in data set [4] is 21.5 µM (≈ 12.5 µg/mL); in data set [5] it was 10.7 µM (≈ 6.22 µg/mL).
Take `CC(C)=CCC/C(C)=C/CC/C(C)=C/Cc1cc(O)cc2c1OC(/C=C(\C)CC/C=C(\C)CCC=C(C)C)C1=C2C(=O)C2=C(NCCS2(=O)=O)C1=O` (stereo not drawn): the pIC50 is 5.82 in data set [1], 5.54 in data set [2], 5.54 in data set [8] and 4.78 in [9] (read-out: IC50). Further, the MIC in data set [4] and in data set [5] was above 200 µM each time. In addition, the result in data set [6] and in data set [7] was inactive.
In the case of `CC(C)=CCC/C(C)=C/CC/C(C)=C/Cc1cc2c(cc1O)C1=C(C(=O)C3=C(C1=O)S(=O)(=O)CCN3)C(/C=C(\C)CC/C=C(\C)CCC=C(C)C)O2` (stereo not drawn), the pIC50 is 5.33 in data set [1], 5.28 in data set [2], 5.13 in data set [8] and 3.90 in data set [9] (read-out: IC50). In addition, the MIC in data set [4] and in data set [5] was above 200 µM in each case. Further, the outcome in data set [6] and in [7] was inactive. Besides, in [10], the selectivity ratio stood at 17.
On to `CC(C)=CCc1cc2c(cc1O)C1=C(C(=O)C3=C(C1=O)S(=O)(=O)CCN3)C(C=C(C)C)O2` (stereo not drawn), for which the pIC50 was 5.51 in [1], 5.64 in data set [2], 6.54 in [8] and 6.40 in data set [9] (read-out: IC50). Besides, the MIC in data set [4] and in data set [5] was above 200 µM each time. The result in [6] and in [7] was inactive.
`CC(C)=CCC/C(C)=C/CC/C(C)=C/C1Oc2ccc(O)cc2C2=C1C(=O)C=CC2=O` (stereo not drawn): the pIC50 in data set [1] was 5.77; in data set [2], 5.48; in data set [8] it was 5.14; in data set [9] (read-out: IC50) it was 4.63. Also, the figures for the MIC in [4] and in [5] were 6.25 µM (≈ 2.62 µg/mL) and 3.12 µM (≈ 1.31 µg/mL), respectively. Further, the outcome in [6] and in data set [7] was inactive.
Consider `CC(C)=CCC/C(C)=C/CC/C(C)=C/Cc1cc2c(cc1O)C1=C(C(=O)C3=C(NCCS3(=O)=O)C1=O)C(/C=C(\C)CC/C=C(\C)CCC=C(C)C)O2` (stereo not drawn), for which the negative logarithm of the IC50 (pIC50) in data set [1] was 6.35; in [2], 6.00; in [8], 5.47; in data set [9] (read-out: IC50) it was 4.59. For the same molecule, the minimum inhibitory concentration (MIC) in data set [4] and in data set [5] was above 200 µM in each case. Further, the result in data set [6] and in [7] was inactive.
As to `CC(C)=CCc1cc2c(cc1O)C1=C(C(=O)C3=C(NCCS3(=O)=O)C1=O)C(C=C(C)C)O2` (stereo not drawn), the pIC50 in data set [1] was below 4.66; in data set [2], below 4.66; in data set [8], 5.32; in data set [9] (read-out: IC50), 5.28. The MIC in data set [4] and in data set [5] was above 200 µM each time. Moreover, the result in [6] and in data set [7] was inactive.

These data come from ChEMBL document CHEMBL4052727, “Structure-activity relationship studies on thiaplidiaquinones A and B as novel inhibitors of Plasmodium falciparum and farnesyltransferase” (Bioorg Med Chem, 2017).
